These results are taken from the OligoGym collection.

Bases are written 5' to 3'; sugars and linkages follow in the same order, as letters with counts (s phosphorothioate, o phosphodiester; PS: all linkages phosphorothioate). C may stand for cytosine or 5-methylcytosine; the collection does not tell. l = locked nucleic acid (LNA); d = 2'-deoxy (DNA)

The target in this data set is HIF1A. As to the kind of experiment: HeLa, 100 nM transfected, 24 h, mean of 3. Particulars: ASO.
As to “GTTACTGCCTTCTTAC (sugars l1 d3 l1 d7 l4, PS)”, the caspase activation (% of PBS control) was 259.
Sequence TGGCAAGCATCCT (sugars l1 d10 l2, PS) displayed a caspase activation (% of PBS control) of 253.
The result for “GTTACTGCCTTCTTAC (sugars l2 d10 l1 d1 l2, PS)” reads 128; that for “TGGCAAGCATCCTGTA (sugars l1 d1 l2 d11 l1, PS)”, 324.
Take “TACTGCCTTCTTA (sugars l1 d1 l2 d7 l2, PS)”: the caspase activation (% of PBS control) was 448.
On to “GTTACTGCCTTCTTAC (sugars lllldddddddldldl, PS)”, for which the caspase activation (% of PBS control) was 281.
The result for “TGGCAAGCATCCTGTA (sugars lldldddddddldddl, PS)” reads 322; that for “GTTACTGCCTTCTTAC (sugars lldddddddddldldl, PS)”, 144.
As for “ACTGCCTTCTTAC (sugars lddlddddddldl, PS)”, the figure is 118; as for “TTACTGCCTTCTT (sugars lldlddddddldl, PS)”, 222; as for “GTTACTGCCTTCTTAC (sugars lldldddddddldldl, PS)”, 193.
The result for “GTTACTGCCTTCTTAC (sugars lddllddddddllddl, PS)” reads 268; that for “TGGCAAGCATCCTGTA (sugars l1 d1 l2 d8 l4, PS)”, 398.
In turn, “TGGCAAGCATCCTGTA (sugars lllllddddddldldl, PS)” showed a caspase activation (% of PBS control) of 373.
“GTTACTGCCTTCTTAC (sugars l3 d9 l2 d1 l1, PS)” had a caspase activation (% of PBS control) of 202.
For “GTTACTGCCTTCT (sugars l1 d9 l1 d1 l1, PS)”, the caspase activation (% of PBS control) is 104.
Consider CAAGCATCCTGTA (sugars l1 d11 l1, PS), for which the caspase activation (% of PBS control) worked out at 100.
The sequence “CAAGCATCCTGTA (sugars l1 d2 l1 d8 l1, PS)” showed a caspase activation (% of PBS control) of 101.
TACTGCCTTCTTA (sugars l2 d9 l2, PS) returned a caspase activation (% of PBS control) of 184.
As for “GGCAAGCATCCTG (sugars l3 d7 l1 d1 l1, PS)”, the figure is 632; as for “TGGCAAGCATCCTGTA (sugars lddldddddddddldl, PS)”, 200.
As for “GTTACTGCCTTCT (sugars l1 d1 l2 d8 l1, PS)”, the figure is 136; as for “GGCAAGCATCCTG (sugars l1 d1 l2 d7 l2, PS)”, 688.
As for “TGGCAAGCATCCTGTA (sugars l3 d8 l1 d1 l3, PS)”, the figure is 477.
GCAAGCATCCTGT (sugars l4 d6 l3, PS) came in with a caspase activation (% of PBS control) of 340.
The result for “TGGCAAGCATCCTGTA (sugars l3 d10 l1 d1 l1, PS)” reads 251; that for “TGGCAAGCATCCTGTA (sugars l2 d9 l1 d3 l1, PS)”, 413; that for “GTTACTGCCTTCTTAC (sugars lddllddddddldlll, PS)”, 237.
As for “TGGCAAGCATCCTGTA (sugars lddldddddddlldll, PS)”, the figure is 356.
As for “GTTACTGCCTTCTTAC (sugars l2 d1 l2 d6 l5, PS)”, the figure is 474.
Consider “GTTACTGCCTTCTTAC (sugars ldddlddddddldlll, PS)”, for which the caspase activation (% of PBS control) amounted to 162.
As for “GTTACTGCCTTCTTAC (sugars ldlldddddddllddl, PS)”, the caspase activation (% of PBS control) is 255.
As for “TACTGCCTTCTTA (sugars l2 d1 l1 d8 l1, PS)”, the figure is 222.
For the sequence TTACTGCCTTCTT (sugars l1 d10 l2, PS), the caspase activation (% of PBS control) came out at 102.
The result for “TTACTGCCTTCTT (sugars l1 d1 l1 d8 l2, PS)” reads 146.
On to “TGGCAAGCATCCTGTA (sugars llddlddddddldddl, PS)”, for which the caspase activation (% of PBS control) came out at 383.
The result for “GTTACTGCCTTCTTAC (sugars ldlddddddddlldll, PS)” reads 135; that for “TGGCAAGCATCCTGTA (sugars l4 d7 l1 d3 l1, PS)”, 299.
Consider “TGGCAAGCATCCTGTA (sugars l1 d12 l1 d1 l1, PS)”, for which the caspase activation (% of PBS control) was 150.
The result for “TGGCAAGCATCCTGTA (sugars llldlddddddlddll, PS)” reads 348.
Regarding “TGGCAAGCATCCTGTA (sugars llldldddddddldll, PS)”, the caspase activation (% of PBS control) is 367.
The result for “TGGCAAGCATCCTGTA (sugars l1 d10 l1 d1 l3, PS)” reads 348; that for “ACTGCCTTCTTAC (sugars ldllddddddldl, PS)”, 217; that for TTACTGCCTTCTT (sugars l3 d9 l1, PS), 128.
Sequence “GTTACTGCCTTCT (sugars ldldddddddldl, PS)” came in with a caspase activation (% of PBS control) of 108.
The sequence “TGGCAAGCATCCTGTA (sugars l3 d1 l1 d9 l2, PS)” returned a caspase activation (% of PBS control) of 382.
With GCAAGCATCCTGT (sugars l2 d10 l1, PS), the caspase activation (% of PBS control) was 279.
“TGGCAAGCATCCT (sugars l1 d1 l2 d8 l1, PS)”: the caspase activation (% of PBS control) came out at 327.
“GTTACTGCCTTCTTAC (sugars l1 d1 l3 d8 l3, PS)” gave a caspase activation (% of PBS control) of 463.
As for GGCAAGCATCCTG (sugars l1 d9 l3, PS), the figure is 468.
The result for “GTTACTGCCTTCTTAC (sugars ldlldddddddldldl, PS)” reads 187.
“TGGCAAGCATCCTGTA (sugars lldllddddddldddl, PS)” returned a caspase activation (% of PBS control) of 385.
As for “TGGCAAGCATCCTGTA (sugars llldlddddddldlll, PS)”, the figure is 428; as for “GTTACTGCCTTCTTAC (sugars ldlllddddddllldl, PS)”, 639; as for “GTTACTGCCTTCTTAC (sugars l1 d2 l1 d10 l2, PS)”, 93.2.
In turn, “TGGCAAGCATCCTGTA (sugars l1 d1 l2 d7 l5, PS)” returned a caspase activation (% of PBS control) of 415.
“GTTACTGCCTTCTTAC (sugars l2 d9 l1 d2 l2, PS)” had a caspase activation (% of PBS control) of 120.
As to “TGGCAAGCATCCTGTA (sugars ldddlddddddldlll, PS)”, the caspase activation (% of PBS control) amounted to 230.
The result for “GTTACTGCCTTCTTAC (sugars llldlddddddllddl, PS)” reads 308; that for TGGCAAGCATCCTGTA (sugars l5 d7 l4, PS), 358; that for “GTTACTGCCTTCTTAC (sugars ldlddddddddllldl, PS)”, 271.
For the sequence “TGGCAAGCATCCTGTA (sugars ldddldddddddlddl, PS)”, the caspase activation (% of PBS control) amounted to 173.
The result for “GTTACTGCCTTCTTAC (sugars ldlddddddddldldl, PS)” reads 145.
“TACTGCCTTCTTA (sugars lldlddddddldl, PS)” gave a caspase activation (% of PBS control) of 293.
